Here are results for one molecule from US20040208844A1, “Products and drug delivery vehicles” (priority 2001, published 2004).

The target of the assay is T1, Human placenta or human platelet vitronectin receptor, αvβ3 (Homo sapiens, UniProt P05106+P06756).
T1 construct: Human placenta or human platelet vitronectin receptor, αvβ3; from tissue; host or cells: human placenta or human platelets
As to the kind of experiment: [3H]-SK&F-107260 vitronectin receptor binding assay. As to conditions: sample dissolved in 1:1 TBS:DMSO; 5 nM [3H]-SK&F-107260. As for the experimental part:
In vitro binding affinity of conjugates, polymeric micelles and polymer therapeutics of the present invention may be determined by receptor binding assays such as are known in the art. Conjugates, polymeric micelles and polymer therapeutics of the present invention will have a Ki (the dissociation constant of the antagonist) according to a receptor binding assay in the nanomolar to micromolar range, preferably in the nanomolar range.
The following samples were prepared for an in vitro binding assay:
Solution #1: polymer-receptor antagonist conjugate according to Example 3b, dissolved in TBS at a concentration of 10 milliMole of VRA 1.
Solution #2: PEG-PLA copolymer according to Example 2B, dissolved in TBS at a concentration of 50 mg/ml;
Solution #3: VRA 1 dissolved in 1:1 TBS:DMSO at a concentration of 10 milliMole;
Solution #4: polymer-receptor antagonist conjugate according to Example 3b, dissolved in 1:1 TBS:DMSO at a concentration of 10 milliMole VRA 1; and […]
Binding studies were carried out according to the method described by Wong et al., Studies on alphavbeta3/ligand interactions using a (^3H)SK&F-107260 binding assay, Mol. Pharmacology, 1996, 50, 529-537. […] After one hour incubation at room temperature, the wells were aspirated completely and washed twice with 100 ul of ice-cold Buffer A. Bound [^3H]-SK&F-107260 was solubilized and counted.

T1 sequence (P06756 31-889 limits assumed): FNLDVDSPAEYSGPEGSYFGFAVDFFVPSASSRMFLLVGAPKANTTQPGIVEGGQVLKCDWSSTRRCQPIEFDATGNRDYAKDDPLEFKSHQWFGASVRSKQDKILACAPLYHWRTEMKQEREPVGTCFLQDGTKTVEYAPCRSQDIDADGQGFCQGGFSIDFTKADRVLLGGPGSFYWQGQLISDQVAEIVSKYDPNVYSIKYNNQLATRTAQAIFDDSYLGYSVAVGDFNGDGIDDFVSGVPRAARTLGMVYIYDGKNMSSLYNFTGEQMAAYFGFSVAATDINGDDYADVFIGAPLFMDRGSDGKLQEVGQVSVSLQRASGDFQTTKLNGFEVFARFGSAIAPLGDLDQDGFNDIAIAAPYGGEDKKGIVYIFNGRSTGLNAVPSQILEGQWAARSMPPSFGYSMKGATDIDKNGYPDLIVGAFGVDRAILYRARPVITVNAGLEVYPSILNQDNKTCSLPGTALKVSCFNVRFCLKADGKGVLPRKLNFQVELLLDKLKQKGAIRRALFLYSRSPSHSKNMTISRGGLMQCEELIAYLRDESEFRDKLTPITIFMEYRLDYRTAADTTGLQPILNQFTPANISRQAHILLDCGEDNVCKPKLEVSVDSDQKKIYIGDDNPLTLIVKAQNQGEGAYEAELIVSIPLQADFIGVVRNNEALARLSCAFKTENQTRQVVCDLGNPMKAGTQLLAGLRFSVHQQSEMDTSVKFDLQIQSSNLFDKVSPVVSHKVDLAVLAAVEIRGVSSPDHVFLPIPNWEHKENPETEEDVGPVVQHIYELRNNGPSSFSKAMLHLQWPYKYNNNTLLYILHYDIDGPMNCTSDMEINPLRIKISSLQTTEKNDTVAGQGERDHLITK
T1 sequence (P06756 891-1048 partner limits assumed): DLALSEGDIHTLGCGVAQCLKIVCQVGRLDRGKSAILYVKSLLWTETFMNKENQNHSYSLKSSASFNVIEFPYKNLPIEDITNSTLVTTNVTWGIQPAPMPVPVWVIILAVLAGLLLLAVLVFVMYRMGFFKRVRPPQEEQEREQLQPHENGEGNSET
T1 sequence (P05106 27-788): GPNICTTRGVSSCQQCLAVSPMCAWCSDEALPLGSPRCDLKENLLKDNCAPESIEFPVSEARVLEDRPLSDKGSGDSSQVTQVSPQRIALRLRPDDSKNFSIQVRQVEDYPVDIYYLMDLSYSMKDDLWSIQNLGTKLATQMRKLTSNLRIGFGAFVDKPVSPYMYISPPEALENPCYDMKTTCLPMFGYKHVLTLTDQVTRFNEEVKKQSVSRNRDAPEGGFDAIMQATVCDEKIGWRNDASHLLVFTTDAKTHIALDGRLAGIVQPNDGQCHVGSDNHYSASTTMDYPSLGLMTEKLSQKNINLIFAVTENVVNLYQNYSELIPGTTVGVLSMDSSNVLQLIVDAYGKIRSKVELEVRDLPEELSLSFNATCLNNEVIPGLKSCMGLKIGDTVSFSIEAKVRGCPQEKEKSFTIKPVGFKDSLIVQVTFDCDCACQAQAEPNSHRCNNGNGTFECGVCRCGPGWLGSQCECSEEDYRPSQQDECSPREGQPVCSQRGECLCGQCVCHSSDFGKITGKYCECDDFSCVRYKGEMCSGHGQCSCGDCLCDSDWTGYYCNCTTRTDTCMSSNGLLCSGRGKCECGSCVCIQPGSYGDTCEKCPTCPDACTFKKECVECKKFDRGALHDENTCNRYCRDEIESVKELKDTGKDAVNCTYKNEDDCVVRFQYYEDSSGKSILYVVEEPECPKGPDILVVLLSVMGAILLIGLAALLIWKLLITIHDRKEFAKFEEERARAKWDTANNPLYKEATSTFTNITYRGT

For the molecule `CN1Cc2cc(C(=O)N(CCCCN)Cc3nc4ccccc4[nH]3)ccc2N[C@@H](CC(=O)O)C1=O` [VRA 1, (S)-7-[[N-(4-Aminobutyl)-N-(benzimidazol-2-ylmethyl)]amino]carbonyl-4-methyl-3-oxo-2,3,4,5-tetrahydro-1H-1,4-benzodiazepine-2-acetic acid], the Ki was found to be 1.7 nM.

As a reminder, the Ki is the equilibrium dissociation constant of an inhibitor or competing ligand from its target. Lower therefore signals tighter binding.
